Experimental data from patent US7897598B2, “Inhibitors of the anandamide transporter” (priority 1998, dated 2011).
Where “and” joins values, the source holds several entries; their conditions need not be identical. Equal entries are not always repeated. Where two headings read alike, the source gives them in different places.

Legend:
anandamide transporter [1] = test system: anandamide transporter
anandamide transporter [2] = assay: [3H]anandamide transport assay, inhibition in astrocytoma cells; settings: for IC50: read-out: IC50, [3H]anandamide accumulation
[3] = test system: adenylyl cyclase activity; assay: cAMP concentrations (adenylyl cyclase activity) in forskolin-stimulated cortical neurons; type: cell-based, rat
CB1 receptors = CB1 receptors (Homo sapiens, UniProt P21554); assay: Binding to CB1 receptors
Chain of CB1 receptors (P21554 whole entry): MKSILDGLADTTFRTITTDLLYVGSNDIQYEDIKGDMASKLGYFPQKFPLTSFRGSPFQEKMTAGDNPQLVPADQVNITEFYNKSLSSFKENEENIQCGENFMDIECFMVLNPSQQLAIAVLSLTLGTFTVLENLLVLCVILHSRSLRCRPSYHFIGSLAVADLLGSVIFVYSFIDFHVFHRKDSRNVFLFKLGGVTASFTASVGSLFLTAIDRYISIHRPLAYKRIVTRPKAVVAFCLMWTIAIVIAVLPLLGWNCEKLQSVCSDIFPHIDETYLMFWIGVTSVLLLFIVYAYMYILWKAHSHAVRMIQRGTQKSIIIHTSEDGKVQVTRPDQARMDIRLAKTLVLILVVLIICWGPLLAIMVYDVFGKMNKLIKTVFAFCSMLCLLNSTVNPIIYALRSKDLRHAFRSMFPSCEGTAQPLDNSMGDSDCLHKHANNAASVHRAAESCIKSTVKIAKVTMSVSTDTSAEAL

male Swiss mice = settings: mouse, in vivo
anandamide transporter [4] = assay: [3H]anandamide accumulation in cortical astrocytes in culture; type: cell-based, rat
anandamide transporter [5] = assay: Transport (translocation) of radioactively labeled substrates into astrocytoma cells; type: cell-based, human; settings: radioactively labeled compound, FIG. 4 and FIG. 5
anandamide transporter [6] = assay: [3H]anandamide accumulation in neurons; type: cell-based, rat
[7] = target: T1, fatty acid amide hydrolase (FAAH) (Rattus norvegicus, UniProt P97612); assay: FAAH activity in brain microsomes; type: biochemical
T1 construct: from tissue; host or cells: brain microsomes
T1 sequence (P97612 1-579): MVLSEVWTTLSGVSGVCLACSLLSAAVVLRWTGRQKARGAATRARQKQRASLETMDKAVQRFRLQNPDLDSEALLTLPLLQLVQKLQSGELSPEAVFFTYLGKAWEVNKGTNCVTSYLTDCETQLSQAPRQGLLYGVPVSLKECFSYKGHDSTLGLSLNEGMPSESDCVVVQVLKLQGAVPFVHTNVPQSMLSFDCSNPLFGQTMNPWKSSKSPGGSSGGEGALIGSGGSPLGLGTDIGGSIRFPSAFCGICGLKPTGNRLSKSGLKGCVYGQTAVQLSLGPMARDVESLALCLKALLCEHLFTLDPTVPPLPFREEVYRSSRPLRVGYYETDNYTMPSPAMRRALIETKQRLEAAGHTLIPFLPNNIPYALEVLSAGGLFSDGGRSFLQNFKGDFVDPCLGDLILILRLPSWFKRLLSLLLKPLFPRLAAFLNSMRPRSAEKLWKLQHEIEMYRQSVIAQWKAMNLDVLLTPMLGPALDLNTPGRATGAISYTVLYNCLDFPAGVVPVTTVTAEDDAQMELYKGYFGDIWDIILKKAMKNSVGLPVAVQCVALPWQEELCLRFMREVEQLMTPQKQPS

[8] = target: rat cerebral membranes ([3H]WIN-55212-2 binding) (Rattus norvegicus, UniProt P20272); assay: Binding of [3H]WIN-55212-2 to rat cerebral membranes
Chain of rat cerebral membranes ([3H]WIN-55212-2 binding) (P20272 whole entry): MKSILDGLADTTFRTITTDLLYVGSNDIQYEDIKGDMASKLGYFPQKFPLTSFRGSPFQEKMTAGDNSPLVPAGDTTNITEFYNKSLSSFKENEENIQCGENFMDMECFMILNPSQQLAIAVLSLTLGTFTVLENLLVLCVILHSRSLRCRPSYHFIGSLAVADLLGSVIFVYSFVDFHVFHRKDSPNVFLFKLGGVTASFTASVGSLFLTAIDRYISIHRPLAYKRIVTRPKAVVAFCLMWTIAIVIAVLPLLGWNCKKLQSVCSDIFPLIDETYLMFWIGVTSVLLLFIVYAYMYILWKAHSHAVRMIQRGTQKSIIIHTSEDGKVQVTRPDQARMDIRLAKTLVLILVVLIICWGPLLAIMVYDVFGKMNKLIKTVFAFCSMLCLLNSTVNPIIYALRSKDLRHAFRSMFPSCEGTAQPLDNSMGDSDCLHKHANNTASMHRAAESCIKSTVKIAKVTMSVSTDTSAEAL

CCCCC/C=C\C/C=C\C/C=C\CCCCCCC(=O)NCCO
IC50 (anandamide transporter [1]): 13 ± 3.6 µM

CCCCCCCC/C=C\CCCCCCCCCC(=O)NCCO
IC50 (anandamide transporter [1]): 14.1 ± 1.2 µM

CCCCCC=CCC=CCC=CCC=CCCCC(=O)NCC
IC50 (anandamide transporter [1]): 48.5 ± 7.3 µM

CCCCCC=CCC=CCC=CCC=CCCCC(N)=O
IC50 (anandamide transporter [1]): 9 ± 2 µM

CCCCCC=CCC=CCC=CCC=CCCCC(=O)OC(CO)CO
IC50 (anandamide transporter [1]): 18.5 ± 0.7 µM

CCCCCC=CCC=CCC=CCC=CCCCC(=O)OCC(O)CO (centres unmarked)
IC50 (anandamide transporter [1]): 48.5 ± 8.1 µM

CCCCCC=CCC=CCC=CCC=CCCCC(=O)N1CCOCC1
IC50 (anandamide transporter [1]): 25 µM

CCCCCC=CCC=CCC=CCC=CCCCC(=O)N1CCC(O)CC1
IC50 (anandamide transporter [1]): 10 ± 0.2 µM

CCCCCC=CCC=CCC=CCC=CCCCC(=O)N1CCCC(O)C1 (centres unmarked)
IC50 (anandamide transporter [1]): 15 µM

CCCCCC=CCC=CCC=CCC=CCCCC(=O)N1CCC(O)C1 (centres unmarked)
IC50 (anandamide transporter [1]): 15.3 ± 3 µM

CCCCCC=CCC=CCC=CCC=CCCC(C)(C)C(=O)NCCO
IC50 (anandamide transporter [1]): 7.6 ± 1.2 µM

CCCCC/C=C\C/C=C\C/C=C\C/C=C\CCCC(=O)Nc1cccc(O)c1 [AM403, N-(3-hydroxyphenyl)-arachidonamide]
times less effective than N-(4-hydroxyphenyl)-arachidonamide (anandamide transporter [2]; human astrocytoma cells, ratio of IC50): 10 times
IC50 (anandamide transporter [2]; human astrocytoma cells): 21.3 ± 3.4 µM
cAMP, % of forskolin alone [3]: 92.4±2.3%
enhancement of the anandamide response on cAMP (in words) [3]: less effective

CCCCC/C=C\C/C=C\C/C=C\C/C=C\CCCC(=O)Nc1ccc(O)cc1 [AM404, N-(4-hydroxyphenyl)-arachidonamide]
competition with [3H]anandamide for transport / uptake inhibition (in words) (anandamide transporter [2]): the most potent competitor in our series
IC50 (anandamide transporter [2]; human astrocytoma cells): 2.2 ± 0.2 µM
Ki (CB1 receptors): 1.8 µM
cAMP, % of forskolin alone [3]: 89.8±2.6% and 84.4±4.9%
decrease of anandamide threshold, factor [3]: 1.100
effect on cAMP concentrations when applied alone [3]: did not reduce cAMP concentrations
enhancement of the anandamide response on cAMP (in words) [3]: almost maximal effect
increase of anandamide potency, factor [3]: 10
antinociceptive effect alone (in words) (male Swiss mice): no antinociceptive effect
effect on anandamide-induced analgesia (in words) (male Swiss mice): significantly enhanced and prolonged

CCCCC[C@H](O)/C=C/[C@H]1[C@H](O)CC(=O)[C@@H]1C/C=C\CCCC(=O)O [PGE2, prostaglandin E2]
effect on [3H]anandamide accumulation (in words) (anandamide transporter [4]): inability

Cc1c(C(=O)c2cccc3ccccc23)c2cccc3c2n1[C@H](CN1CCOCC1)CO3 [WIN-55212-2, reference compound]
cAMP, % of forskolin alone [3]: 96.7±2.5%
effect on [3H]anandamide accumulation (in words) (anandamide transporter [4]): no effect

CCCCC/C=C\C/C=C\C/C=C\C/C=C\CCCC(=O)NCCO [anandamide, Arachidonyl ethanolamide]
IC50 (anandamide transporter [1]): 15.1 ± 3 µM
latency to jump (male Swiss mice): 30.7 ± 0.8 s
time after injection at which analgesia disappeared (male Swiss mice): 60 min

CCCCC/C=C\C/C=C\C/C=C\C/C=C\CCCC(N)=O [arachidonamide]
competition with [3H]anandamide for transport / uptake inhibition (in words) (anandamide transporter [2]): compete with anandamide for uptake
transport into cells (substrate translocation, in words) (anandamide transporter [5]): effectively transported into cells

Cc1c(C2(c3cc(Br)c(O)c(Br)c3C)OS(=O)(=O)c3ccccc32)cc(Br)c(O)c1Br [bromcresol green]
IC50 (anandamide transporter [6]): 4 µM
effect on FAAH activity [7]: no significant effect
cAMP, % of forskolin alone ([3]; 10 μM inhibitor in the presence of WIN-55212-2 1 nM, n=3): 92.9±2.3%
enhancement of the anandamide response on cAMP (in words) ([3]; anandamide 0.3 μM, inhibitors 10 μM, SR-141716-A 1 μM): less effective
cAMP, % of forskolin alone ([3]; inhibitor in the presence of glutamate 3 μM, n=3): 84.4±3%
mode of inhibition of [3H]anandamide accumulation (anandamide transporter [4]): noncompetitively
IC50 (anandamide transporter [4]; astrocytes): 12 µM
effect on binding of [3H]WIN-55212-2 [8]: no significant effect

CCCCCCCC/C=C\CCCCCCCC(=O)NCCO [drawing 6]
IC50 (anandamide transporter [1]): 10.5 ± 1.2 µM

CCCCCC=CCC=CCC=CCC=CCCCC(=O)NC(C)CO (centres unmarked) [drawing 12]
IC50 (anandamide transporter [1]): 37.7 ± 0.7 µM

CCCCCC=CCC=CCC=CCC=CCCCC(=O)NC(C)CO (centres unmarked) [drawing 13]
IC50 (anandamide transporter [1]): 10.4 ± 1.2 µM

CCCCCC=CCC=CCC=CCC=CCCC(C)(C)C(=O)NCC(C)O (centres unmarked) [drawing 21]
IC50 (anandamide transporter [1]): 33.2 ± 4.2 µM

CCCCCC=CCC=CCC=CCC=CCCC(C)(C)C(=O)NCC(C)O (centres unmarked) [drawing 22]
IC50 (anandamide transporter [1]): 16.5 ± 1 µM

N[C@@H](CCC(=O)O)C(=O)O [glutamate, reference compound]
cAMP, % of forskolin alone [3]: 91.6±2%

CCCCCCCC/C=C\CCCCCCCC(=O)NCCO [oleylethanolamide]
transport into cells (substrate translocation, in words) (anandamide transporter [5]): not transported at all

CCCCCCCCCCCCCCCC(=O)NCCO [palmitoyl ethanolamide, reference compound]
transport into cells (substrate translocation, in words) (anandamide transporter [5]): not transported to any significant extent
effect on [3H]anandamide accumulation (in words) (anandamide transporter [4]; cortical astrocytes, WIN-55212-2 1 μM, SR-141716-A 10 μM): not

cis-eicosadienoylethanolamide
transport into cells (substrate translocation, in words) (anandamide transporter [5]): transported very slowly

cis-eicosaenoylethanoladide
transport into cells (substrate translocation, in words) (anandamide transporter [5]): not transported at all

cis-eicosatrienoylethanolamide
transport into cells (substrate translocation, in words) (anandamide transporter [5]): transported very slowly
